From patent publication US12522583B2, “Benzimidazole derivatives and aza-benzimidazole derivatives as Janus kinase 2 inhibitors and uses thereof” (Dana-Farber Cancer Institute, Inc., priority 2018, dated 2026)

Legend:
Experiment in all cases: KINOMEscan
Type in all cases: binding
Details in all cases: read-out: percent control
[1] = biological target: ABL1(Y253F)-phosphorylated (Homo sapiens (Human), UniProt P00519, Y253F)
From the text: (§1) Example 2. In Vitro Kinase Selectivity Profiling of the Compounds of the Present Disclosure

[2] = biological target: CAMK2B (Homo sapiens (Human), UniProt Q13554)
From the text: as §1

[3] = biological target: CDK11 (Homo sapiens (Human), UniProt Q9BWU1)
From the text: as §1

[4] = biological target: CDK8 (Homo sapiens (Human), UniProt P49336)
From the text: as §1

[5] = biological target: CLK1 (Homo sapiens (Human), UniProt P49759)
From the text: as §1

[6] = biological target: DRAK2 (Homo sapiens (Human), UniProt O94768)
From the text: as §1

[7] = biological target: DYRK1A (Homo sapiens (Human), UniProt Q13627)
From the text: as §1

[8] = biological target: DYRK1B (Homo sapiens (Human), UniProt Q9Y463)
From the text: as §1

[9] = biological target: EGFR(L858R) (Homo sapiens (Human), UniProt P00533, L858R)
From the text: as §1

[10] = biological target: EGFR(L861Q) (Homo sapiens (Human), UniProt P00533, L861Q)
From the text: as §1

[11] = biological target: EPHB1 (Homo sapiens (Human), UniProt P54762)
From the text: as §1

[12] = biological target: FLT3-autoinhibited (Homo sapiens (Human), UniProt P36888)
From the text: as §1

[13] = biological target: HPK1 (Homo sapiens (Human), UniProt Q92918)
From the text: as §1

[14] = biological target: JAK1(JH2domain-pseudokinase) (Homo sapiens (Human), UniProt P23458)
From the text: as §1

[15] = biological target: KIT(D816H) (Homo sapiens (Human), UniProt P10721, D816H)
From the text: as §1

[16] = biological target: LATS1 (Homo sapiens (Human), UniProt O95835)
From the text: as §1

[17] = biological target: LZK (Homo sapiens (Human), UniProt O43283)
From the text: as §1

[18] = biological target: MAP4K5 (Homo sapiens (Human), UniProt Q9Y4K4)
From the text: as §1

[19] = biological target: MARK4 (Homo sapiens (Human), UniProt Q96L34)
From the text: as §1

[20] = biological target: MRCKA (Homo sapiens (Human), UniProt Q5VT25)
From the text: as §1

[21] = biological target: MTOR (Homo sapiens (Human), UniProt P42345)
From the text: as §1

[22] = biological target: NEK10 (Homo sapiens (Human), UniProt Q6ZWH5)
From the text: as §1

[23] = biological target: NEK2 (Homo sapiens (Human), UniProt P51955)
From the text: as §1

[24] = biological target: PCTK2 (Homo sapiens (Human), UniProt Q00537)
From the text: as §1

[25] = biological target: PDPK1 (Homo sapiens (Human), UniProt O15530)
From the text: as §1

[26] = biological target: PIK3CA(C420R) (Homo sapiens (Human), UniProt P42336, C420R)
From the text: as §1

[27] = biological target: PIK3CA(E542K) (Homo sapiens (Human), UniProt P42336, E542K)
From the text: as §1

[28] = biological target: PIK3CA(Q546K) (Homo sapiens (Human), UniProt P42336, Q546K)
From the text: as §1

[29] = biological target: PIP5K2C (Homo sapiens (Human), UniProt Q8TBX8)
From the text: as §1

[30] = biological target: QSK (Homo sapiens (Human), UniProt Q9Y2K2)
From the text: as §1

[31] = biological target: RAF1 (Homo sapiens (Human), UniProt P04049)
From the text: as §1

[32] = biological target: RSK1(Kin.Dom.2-C-terminal) (Homo sapiens (Human), UniProt Q15418)
From the text: as §1

[33] = biological target: RSK4(Kin.Dom.1-N-terminal) (Homo sapiens (Human), UniProt Q9UK32)
From the text: as §1

[34] = biological target: STK16 (Homo sapiens (Human), UniProt O75716)
From the text: as §1

[35] = biological target: SYK (Homo sapiens (Human), UniProt P43405)
From the text: as §1

[36] = biological target: TESK1 (Homo sapiens (Human), UniProt Q15569)
From the text: as §1

[37] = biological target: TRKB (Homo sapiens (Human), UniProt Q16620)
From the text: as §1

[38] = biological target: VPS34 (Homo sapiens (Human), UniProt Q8NEB9)
From the text: as §1

[39] = biological target: YSK1 (Homo sapiens (Human), UniProt O00506)
From the text: as §1

[40] = biological target: p38-alpha (Homo sapiens (Human), UniProt Q16539)
From the text: as §1

DRAK2, sequence (O94768 whole entry): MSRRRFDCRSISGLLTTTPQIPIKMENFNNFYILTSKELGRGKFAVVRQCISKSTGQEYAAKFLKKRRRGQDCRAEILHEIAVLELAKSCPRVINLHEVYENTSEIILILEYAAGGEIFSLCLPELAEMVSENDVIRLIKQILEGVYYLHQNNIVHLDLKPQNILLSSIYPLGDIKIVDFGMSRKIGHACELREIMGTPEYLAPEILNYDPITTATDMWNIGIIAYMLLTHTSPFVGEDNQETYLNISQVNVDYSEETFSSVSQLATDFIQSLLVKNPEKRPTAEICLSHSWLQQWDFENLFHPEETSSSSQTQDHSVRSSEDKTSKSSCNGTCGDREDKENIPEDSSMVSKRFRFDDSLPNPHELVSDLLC
RAF1, sequence (P04049 whole entry): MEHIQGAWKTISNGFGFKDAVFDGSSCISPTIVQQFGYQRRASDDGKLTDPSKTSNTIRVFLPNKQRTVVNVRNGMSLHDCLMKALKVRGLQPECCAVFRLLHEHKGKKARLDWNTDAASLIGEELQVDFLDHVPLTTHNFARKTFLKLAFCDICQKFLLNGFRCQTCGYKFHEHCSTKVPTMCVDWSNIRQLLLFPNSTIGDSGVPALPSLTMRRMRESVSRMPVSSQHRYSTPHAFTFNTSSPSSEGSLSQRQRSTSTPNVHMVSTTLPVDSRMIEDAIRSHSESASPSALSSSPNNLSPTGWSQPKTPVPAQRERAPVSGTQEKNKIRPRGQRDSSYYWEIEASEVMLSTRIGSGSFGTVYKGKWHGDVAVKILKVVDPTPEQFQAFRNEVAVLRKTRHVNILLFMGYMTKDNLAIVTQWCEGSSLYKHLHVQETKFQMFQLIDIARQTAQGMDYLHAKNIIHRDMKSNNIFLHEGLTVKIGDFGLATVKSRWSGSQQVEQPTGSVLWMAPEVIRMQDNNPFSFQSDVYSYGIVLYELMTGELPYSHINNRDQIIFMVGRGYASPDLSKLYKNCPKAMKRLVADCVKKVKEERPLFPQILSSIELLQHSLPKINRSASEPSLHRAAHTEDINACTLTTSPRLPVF
HPK1, sequence (Q92918 whole entry): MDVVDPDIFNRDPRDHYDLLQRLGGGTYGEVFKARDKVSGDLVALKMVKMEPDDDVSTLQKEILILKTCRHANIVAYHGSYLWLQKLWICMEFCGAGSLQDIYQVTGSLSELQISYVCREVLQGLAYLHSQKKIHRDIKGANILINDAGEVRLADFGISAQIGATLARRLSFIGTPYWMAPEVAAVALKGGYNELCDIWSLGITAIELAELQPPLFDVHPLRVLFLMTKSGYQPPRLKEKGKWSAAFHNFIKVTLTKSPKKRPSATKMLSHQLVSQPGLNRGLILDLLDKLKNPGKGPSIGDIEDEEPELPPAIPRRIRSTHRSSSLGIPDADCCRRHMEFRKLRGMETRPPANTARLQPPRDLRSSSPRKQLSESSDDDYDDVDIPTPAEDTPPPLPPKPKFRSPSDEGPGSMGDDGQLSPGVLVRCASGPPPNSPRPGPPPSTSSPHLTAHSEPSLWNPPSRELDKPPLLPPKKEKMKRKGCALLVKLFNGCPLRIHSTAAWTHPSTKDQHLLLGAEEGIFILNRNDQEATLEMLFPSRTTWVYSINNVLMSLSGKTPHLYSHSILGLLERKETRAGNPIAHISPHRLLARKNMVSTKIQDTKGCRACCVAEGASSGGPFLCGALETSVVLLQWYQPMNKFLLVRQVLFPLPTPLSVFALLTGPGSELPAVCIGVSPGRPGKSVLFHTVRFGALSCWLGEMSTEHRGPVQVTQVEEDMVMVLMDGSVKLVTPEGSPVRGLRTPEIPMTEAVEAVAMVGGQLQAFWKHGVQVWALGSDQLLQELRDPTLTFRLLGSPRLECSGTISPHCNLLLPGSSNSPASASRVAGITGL
PIP5K2C, sequence (Q8TBX8 whole entry): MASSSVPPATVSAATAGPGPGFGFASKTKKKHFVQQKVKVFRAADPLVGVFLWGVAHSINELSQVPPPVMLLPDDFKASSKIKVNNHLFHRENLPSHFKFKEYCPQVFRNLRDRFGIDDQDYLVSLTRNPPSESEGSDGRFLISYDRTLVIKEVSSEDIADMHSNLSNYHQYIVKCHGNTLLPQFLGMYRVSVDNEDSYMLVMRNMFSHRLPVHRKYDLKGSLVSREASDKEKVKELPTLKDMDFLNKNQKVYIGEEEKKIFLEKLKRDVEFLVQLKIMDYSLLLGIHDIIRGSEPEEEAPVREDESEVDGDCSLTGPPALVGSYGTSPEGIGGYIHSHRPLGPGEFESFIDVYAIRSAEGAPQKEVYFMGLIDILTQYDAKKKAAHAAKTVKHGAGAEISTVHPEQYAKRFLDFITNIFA
EPHB1, sequence (P54762 18-984): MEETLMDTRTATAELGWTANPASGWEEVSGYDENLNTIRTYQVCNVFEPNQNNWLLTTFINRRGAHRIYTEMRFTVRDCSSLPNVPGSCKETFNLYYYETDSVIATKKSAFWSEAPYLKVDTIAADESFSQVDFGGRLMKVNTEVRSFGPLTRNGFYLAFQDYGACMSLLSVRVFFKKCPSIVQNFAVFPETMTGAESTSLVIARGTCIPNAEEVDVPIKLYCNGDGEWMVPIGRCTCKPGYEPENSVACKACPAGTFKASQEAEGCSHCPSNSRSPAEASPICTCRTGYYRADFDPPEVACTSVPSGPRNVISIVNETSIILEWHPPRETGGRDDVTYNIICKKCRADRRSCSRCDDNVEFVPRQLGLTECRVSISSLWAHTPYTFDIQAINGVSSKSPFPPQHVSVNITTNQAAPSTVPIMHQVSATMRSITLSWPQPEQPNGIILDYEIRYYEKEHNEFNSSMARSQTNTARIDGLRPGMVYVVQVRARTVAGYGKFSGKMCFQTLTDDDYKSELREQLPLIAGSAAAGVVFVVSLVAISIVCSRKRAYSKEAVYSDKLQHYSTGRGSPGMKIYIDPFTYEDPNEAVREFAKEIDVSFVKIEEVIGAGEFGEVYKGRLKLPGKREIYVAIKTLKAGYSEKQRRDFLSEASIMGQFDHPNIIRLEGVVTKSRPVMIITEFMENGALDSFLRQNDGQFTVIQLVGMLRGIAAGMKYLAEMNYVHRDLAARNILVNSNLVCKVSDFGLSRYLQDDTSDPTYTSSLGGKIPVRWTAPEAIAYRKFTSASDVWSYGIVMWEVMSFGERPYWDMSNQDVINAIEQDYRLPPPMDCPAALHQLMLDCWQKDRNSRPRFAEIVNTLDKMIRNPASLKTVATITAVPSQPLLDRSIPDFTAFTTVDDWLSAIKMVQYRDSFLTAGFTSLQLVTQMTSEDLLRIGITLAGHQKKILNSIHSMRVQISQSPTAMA
EGFR(L858R), sequence (P00533 25-1210 L858R): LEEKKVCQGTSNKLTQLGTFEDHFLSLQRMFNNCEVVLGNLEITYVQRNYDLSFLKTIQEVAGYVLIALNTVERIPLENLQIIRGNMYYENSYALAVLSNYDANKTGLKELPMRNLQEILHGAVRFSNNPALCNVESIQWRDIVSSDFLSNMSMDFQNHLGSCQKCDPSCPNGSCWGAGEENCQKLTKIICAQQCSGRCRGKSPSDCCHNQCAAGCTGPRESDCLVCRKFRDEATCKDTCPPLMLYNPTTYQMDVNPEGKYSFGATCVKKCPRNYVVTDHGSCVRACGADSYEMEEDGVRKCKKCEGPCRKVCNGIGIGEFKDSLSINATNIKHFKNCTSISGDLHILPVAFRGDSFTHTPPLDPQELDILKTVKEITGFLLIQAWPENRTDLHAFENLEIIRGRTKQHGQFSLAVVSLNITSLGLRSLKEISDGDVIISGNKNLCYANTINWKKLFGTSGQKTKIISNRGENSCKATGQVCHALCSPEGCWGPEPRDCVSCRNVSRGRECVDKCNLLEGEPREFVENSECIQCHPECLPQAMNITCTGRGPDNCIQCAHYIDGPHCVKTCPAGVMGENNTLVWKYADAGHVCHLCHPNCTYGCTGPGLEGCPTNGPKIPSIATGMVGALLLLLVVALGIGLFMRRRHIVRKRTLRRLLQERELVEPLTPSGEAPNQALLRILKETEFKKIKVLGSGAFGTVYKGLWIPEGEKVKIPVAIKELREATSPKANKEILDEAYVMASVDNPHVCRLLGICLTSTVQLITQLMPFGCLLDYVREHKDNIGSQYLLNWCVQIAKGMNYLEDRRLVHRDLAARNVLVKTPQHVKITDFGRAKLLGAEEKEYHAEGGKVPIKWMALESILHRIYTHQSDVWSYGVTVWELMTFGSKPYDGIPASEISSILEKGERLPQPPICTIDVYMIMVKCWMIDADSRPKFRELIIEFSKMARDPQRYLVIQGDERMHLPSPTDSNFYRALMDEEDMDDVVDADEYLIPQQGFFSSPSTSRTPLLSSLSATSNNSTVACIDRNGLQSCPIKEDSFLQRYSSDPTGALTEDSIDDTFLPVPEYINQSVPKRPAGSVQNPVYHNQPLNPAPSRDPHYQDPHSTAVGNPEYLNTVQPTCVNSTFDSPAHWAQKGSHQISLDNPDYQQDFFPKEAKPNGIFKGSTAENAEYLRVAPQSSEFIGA
STK16, sequence (O75716 whole entry): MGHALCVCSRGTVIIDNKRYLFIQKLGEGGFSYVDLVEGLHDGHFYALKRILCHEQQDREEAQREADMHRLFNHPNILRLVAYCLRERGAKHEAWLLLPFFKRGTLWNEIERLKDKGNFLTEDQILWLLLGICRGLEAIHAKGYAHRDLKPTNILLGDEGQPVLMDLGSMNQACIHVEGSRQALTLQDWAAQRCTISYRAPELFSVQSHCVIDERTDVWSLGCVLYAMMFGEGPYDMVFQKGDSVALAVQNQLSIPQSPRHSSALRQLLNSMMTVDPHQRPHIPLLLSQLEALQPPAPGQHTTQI
JAK1(JH2domain-pseudokinase), sequence (P23458 583-855 limits assumed): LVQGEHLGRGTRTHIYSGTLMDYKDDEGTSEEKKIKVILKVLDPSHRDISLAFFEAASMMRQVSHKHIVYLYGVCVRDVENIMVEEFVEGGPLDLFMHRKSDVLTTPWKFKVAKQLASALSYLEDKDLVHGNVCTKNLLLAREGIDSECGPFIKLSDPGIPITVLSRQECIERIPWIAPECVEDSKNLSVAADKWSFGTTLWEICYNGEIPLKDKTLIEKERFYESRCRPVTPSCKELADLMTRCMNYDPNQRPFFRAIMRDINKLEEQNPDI

## CCN1CCN(Cc2ccc(Nc3nc4ccc(Oc5ccnc(NC(C)=O)c5)cc4n3C)cc2C(F)(F)F)CC1 [Compound I-2]
[1]
  remaining binding at 1 µM: 44%
[2]
  remaining binding at 1 µM: 92%
[3]
  remaining binding at 1 µM: 1.5%
[4]
  remaining binding at 1 µM: 17%
[5]
  remaining binding at 1 µM: 87%
[6]
  remaining binding at 1 µM: 100%
[7]
  remaining binding at 1 µM: 92%
[8]
  remaining binding at 1 µM: 71%
[9]
  remaining binding at 1 µM: 83%
[10]
  remaining binding at 1 µM: 98%
[11]
  remaining binding at 1 µM: 94%
[12]
  remaining binding at 1 µM: 100%
[13]
  remaining binding at 1 µM: 69%
[14]
  remaining binding at 1 µM: 97%
[15]
  remaining binding at 1 µM: 22%
[16]
  remaining binding at 1 µM: 42%
[17]
  remaining binding at 1 µM: 100%
[18]
  remaining binding at 1 µM: 89%
[19]
  remaining binding at 1 µM: 98%
[20]
  remaining binding at 1 µM: 100%
[21]
  remaining binding at 1 µM: 100%
[22]
  remaining binding at 1 µM: 100%
[23]
  remaining binding at 1 µM: 97%
[24]
  remaining binding at 1 µM: 91%
[25]
  remaining binding at 1 µM: 94%
[26]
  remaining binding at 1 µM: 100%
[27]
  remaining binding at 1 µM: 100%
[28]
  remaining binding at 1 µM: 100%
[29]
  remaining binding at 1 µM: 96%
[30]
  remaining binding at 1 µM: 60%
[31]
  remaining binding at 1 µM: 14%
[32]
  remaining binding at 1 µM: 93%
[33]
  remaining binding at 1 µM: 100%
[34]
  remaining binding at 1 µM: 59%
[35]
  remaining binding at 1 µM: 85%
[36]
  remaining binding at 1 µM: 67%
[37]
  remaining binding at 1 µM: 36%
[38]
  remaining binding at 1 µM: 87%
[39]
  remaining binding at 1 µM: 94%
[40]
  remaining binding at 1 µM: 92%

## CCN1CCN(Cc2ccc(Nc3nc4ccc(Oc5ccnc(NC(C)=O)c5)c(C)c4n3C)cc2C(F)(F)F)CC1 [Compound I-6, N-(4-(2-(4-((4-ethylpiperazin-1-yl)methyl)-3-(trifluoromethyl)phenylamino)-1,7-dimethyl-1H-benzo[d]imidazol-6-yloxy)pyridin-2-yl)acetamide]
[1]
  remaining binding at 1 µM: 5.5%
[2]
  remaining binding at 1 µM: 94%
[3]
  remaining binding at 1 µM: 1.6%
[4]
  remaining binding at 1 µM: 10%
[5]
  remaining binding at 1 µM: 94%
[6]
  remaining binding at 1 µM: 85%
[7]
  remaining binding at 1 µM: 100%
[8]
  remaining binding at 1 µM: 50%
[9]
  remaining binding at 1 µM: 97%
[10]
  remaining binding at 1 µM: 100%
[11]
  remaining binding at 1 µM: 95%
[12]
  remaining binding at 1 µM: 66%
[13]
  remaining binding at 1 µM: 56%
[14]
  remaining binding at 1 µM: 82%
[15]
  remaining binding at 1 µM: 44%
[16]
  remaining binding at 1 µM: 95%
[17]
  remaining binding at 1 µM: 75%
[18]
  remaining binding at 1 µM: 88%
[19]
  remaining binding at 1 µM: 83%
[20]
  remaining binding at 1 µM: 98%
[21]
  remaining binding at 1 µM: 100%
[22]
  remaining binding at 1 µM: 79%
[23]
  remaining binding at 1 µM: 91%
[24]
  remaining binding at 1 µM: 35%
[25]
  remaining binding at 1 µM: 93%
[26]
  remaining binding at 1 µM: 99%
[27]
  remaining binding at 1 µM: 100%
[28]
  remaining binding at 1 µM: 75%
[29]
  remaining binding at 1 µM: 93%
[30]
  remaining binding at 1 µM: 85%
[31]
  remaining binding at 1 µM: 16%
[32]
  remaining binding at 1 µM: 100%
[33]
  remaining binding at 1 µM: 93%
[34]
  remaining binding at 1 µM: 82%
[35]
  remaining binding at 1 µM: 92%
[36]
  remaining binding at 1 µM: 62%
[37]
  remaining binding at 1 µM: 1.4%
[38]
  remaining binding at 1 µM: 100%
[39]
  remaining binding at 1 µM: 65%
[40]
  remaining binding at 1 µM: 44%
